In patent publication US20210386705A1, “APPLICATION OF CHIGLITAZAR AND RELATED COMPOUNDS THEREOF” (SHENZHEN CHIPSCREEN BIOSCIENCES CO., LTD., priority 2018, published 2021):
Several values for one entry are separate records, joined by “and”; a condition that tells them apart may be missing. Equal values may be shown once.

Key:
Format in all cases: cell-based, human
[1] = system: α-smooth muscle actin (α-SMA); experiment: TGF-β1-activated hepatic stellate cells, α-SMA gene expression (qPCR); details: TGF-β1 stimulation, 24 hours; FIG. 4
Description: Human primary hepatic stellate cells were seeded into 6-well plates with complete growth media (Stellate Cell Medium) for 24 hours, and then the culture media were replaced by fresh media (free of serum and growth factors) containing TGF-β1 and the compound to be tested (sodium chiglitazar) or the reference compound PPARγ/α dual agonist pioglitazone or PPARα/δ dual agonist GFT505 (both purchased from Selleck), and the cells were cultured for 24 hours. The total RNAs of the samples were extracted, and reverse transcription reaction was performed. Thereafter, a conventional PCR amplification kit (FastStart Universal SYBR@ Green Master (ROX), Roche) was used for further detection, where the PCR primers were designed with reference to the NCBI standard mRNA sequence of the target genes (Table 2). PCR reaction and detection were carried out on the ABI StepOnePlus real-time quantitative PCR instrument. By calculating the relative amount of transcripts was calculate by “Delta-Delta CT method” (Livak et al. Methods 2001), and using ACTB as the housekeeping gene for normalization and the average data of untreated human hepatic stellate cells as a reference control, the relative change folds of gene expression were obtained (FIG. 4).

[2] = system: monocytic cell line THP-1; experiment: MCP-1-induced chemotaxis of THP-1 cells (Transwell); details: MCP-1 10 ng/mL, compound 3 μmol/L; for Cell concentration in lower chamber, Mean value / Cell concentration in lower chamber, single replicates: 24 hours pretreatment, 4 hours migration; for Migration rate: solvent control + MCP-1 = 100
Source text: In an in vitro model, migration of the monocytic cell line THP-1 induced by a certain concentration of chemokines (such as monocyte chemotactic protein 1, MCP-1), and accordingly such in vivo process was mimicked. Transwell technology, according to the manufacturer's instructions from Corning Inc., is considered that Traswell is a kind of a polycarbonate membrane filter as well as a permeable holder. The polycarbonate membrane divides a culture chamber into upper and lower ones, where the components of the culture medium in the lower chamber can affect the growth, differentiation and movement of the cells in upper chamber. Finally, the cell migration ability can be reflected by staining and counting the cells in the lower chamber.
When cultured to the log phase stage, THP-1 cells were resuspended, adjusted the concentration, and seeded in 24-well plates, followed by being pretreated with the culture media containing the compound to be tested (sodium chiglitazar) or the reference compound GFT505, pioglitazone, or PPARγ single agonist rosiglitazone (all purchased from Selleck) for 24 hours. Transwells were used according to the manufacturer's instructions. The culture media containing chemokine MCP-1 were added to the lower chamber (i.e., the bottom of the 24-well plates), and the cell suspension was added to the upper chamber and cultured for 4 hours. Later, the cells cultured on the “ceiling” surface of the polycarbonate membrane were fixed and stained with crystal violet solution (FIG. 6), and then the number of cells in the lower chamber was counted (Table 3).

THP-1 cells = experiment: Inflammatory factor gene expression (MCP-1, TNFα) in PMA-activated THP-1 cells (qPCR); details: 6 hours, FIG. 5
Description: Human acute monocytic leukemia mononuclear cell line (THP-1) cells were activated by a certain concentration of phorbol esters (Phorbol-12-myristate-13-acetate, PMA) and differentiated into macrophages. Through this cell model, the activating effects of sodium chiglitazar and other compounds on the expression of THP-1 related inflammatory factors were detected.
THP-1 cells were seeded into 6-well plates with complete growth media for 24 hours, and then the culture media were replaced by fresh media containing PMA and the compound to be tested (sodium chiglitazar) or the reference compound GFT505 (PPARα/δ dual agonist), and the cells were cultured for 6 hours. The total RNAs of the samples were extracted, and cDNA templates were synthesized by reverse transcription reaction (Transcriptor First Strand cDNA Synthesis Kit, Roche). Thereafter, a conventional PCR amplification kit (FastStart Universal SYBR@ Green Master (ROX), Roche) was used for semi-quantitative gene expression detection on the ABI StepOnePlus real-time quantitative PCR instrument.
The relative expression change of the target genes was obtained by using the internal reference β-actin gene (ACTB) as the standard for normalization, compared with the untreated cell samples, and the relative expression change folds were calculated (FIG. 5).

Compound | Effect on expression of α-smooth muscle actin [1] | Cell concentration in lower chamber, Mean value [2] [cells/ml] | Cell concentration in lower chamber, single replicates [2] | Migration rate [2] [%] | Inhibition of phorbol esters-mediated activation of monocyte and related gene expression (THP-1 cells)
CCc1ccc(CCOc2ccc(CC3SC(=O)NC3=O)cc2)nc1 (stereo not drawn) [pioglitazone] | no effect | 17514 | 17529 cells/ml and 17416 cells/ml and 17597 cells/ml | 61.80 | –
CSc1ccc(C(=O)/C=C/c2cc(C)c(OC(C)(C)C(=O)O)c(C)c2)cc1 [GFT505] | a certain inhibitory effect | 28175 | 28443 cells/ml and 28511 cells/ml and 27572 cells/ml | 102.55 | significantly inhibit
